Measurements reported in US6174873A, “Oral administration of adenosine analogs” (SuperGen, Inc., priority 1998, dated 2001).

Assay: Survival of beagle dogs during the dCF bioavailability study
Format: in vivo
Conditions: four female beagle dogs, 0.25 mg/kg IV or 1.25-5.0 mg/kg PO for 2 days
Source text: Four female beagle dogs were assigned to this study.

OC[C@H]1O[C@@H](n2cnc3c2NC=NC[C@H]3O)C[C@@H]1O [dCF, 2'-deoxycoformycin]
mortality during the course of the study: None of the dogs died
